# Experiment: RP, Waters ACQUITY UPLC HSS C18, 100 × 2.1 mm, 1.7 µm, 40 °C, 0.35 mL/min, estimated dead time 0.63 min; A: water + 0.1% formic acid; B: methanol + 0.1% formic acid; gradient (min/%B) 0/0.5 4/70 4.5/98 5.4/98
# Details: stereoisomer not certain
row,Structure (SMILES),LC retention time [min]
1,CCOC(=O)c1cncn1C(C)c1ccccc1 (stereo not given),5.14
2,CC12CCC3c4ccc(O)cc4CCC3C1CC(O)C2O (stereo not given),4.61
3,NC(=O)NC(NC(N)=O)C(=O)O,0.777
4,O=P(O)(O)OCC1OC(O)C(O)C(O)C1O (stereo not given),0.783
5,CC(C)C(O)(CC(=O)O)C(=O)O (stereo not given),3.35
6,CC(=O)NC(Cc1ccc(O)cc1)C(=O)O (stereo not given),2.89
7,NC(=O)c1ccc[n+](C2OC(COP(=O)([O-])O)C(O)C2O)c1 (stereo not given),0.907
8,CC1NCCc2cc(O)c(O)cc21 (stereo not given),1.61
9,O=C(O)c1cccnc1C(=O)O,1.35
10,COc1ccc(CCN(C)CCCC(C#N)(c2ccc(OC)c(OC)c2)C(C)C)cc1OC (stereo not given),4.54
11,CC(C(=O)O)c1ccc(O)cc1 (stereo not given),3.84
12,Nc1ncnc2c1ncn2C1OC(CSCCC(N)C(=O)O)C(O)C1O (stereo not given),1.71
13,CNC(CC(=O)O)C(=O)O (stereo not given),0.772
14,CC(C)CC(O)C(=O)O (stereo not given),3.94
15,O=C(O)CCCCCCCCC(=O)O,4.96
16,O=CNCC(=O)O,0.919
17,O=C(O)CCCCC(=O)O,2.83
18,O=C(O)C=Cc1c[nH]c2ccccc12,4.59
19,O=C(O)C1(O)CC(O)C(O)C(O)C1 (stereo not given),0.867
20,NC(Cc1ccc(O)cc1)C(=O)O (stereo not given),1.66
21,COc1cc(C=CC(=O)O)ccc1O,3.87
22,CN(C)CCc1ccccc1,2.61
23,Nc1ccc(C(=O)O)c(O)c1,2.69

# Experiment: Waters ACQUITY UPLC BEH C18, 100 × 2.1 mm, 1.7 µm, 40 °C, 0.28 mL/min, estimated dead time 0.63 min; A: water + 6.5 mM ammonium hydroxide; B: methanol + 6.5 mM ammonium hydroxide; gradient (min/%B) 0/0.5 4/70 4.5/98 5.4/98
# Details: stereoisomer not certain
row,Structure (SMILES),LC retention time [min]
1,COC(=O)Cc1ccc(O)cc1,4.14
2,O=c1[nH]cc(CO)c(=O)[nH]1,0.855
3,CC1=C(CCC(=O)O)c2cc3nc(cc4[nH]c(cc5[nH]c(cc1n2)c(C)c5CCC(=O)O)c(CCC(=O)O)c4C)C(CCC(=O)O)=C3C,3.64
4,O=C(CO)C(O)C(O)C(O)CO (stereo not given),0.816
5,O=C(O)CCc1ccccc1O,2.93
6,CCC(C)C(O)C(=O)O (stereo not given),1.97
7,NCCC(=O)O,0.761
8,O=C(O)CCCCCCC(=O)O,0.826
9,Cc1cccc(O)c1O,4
10,O=Cc1c[nH]c2ccccc12,4.19
11,CSCCC(O)C(=O)O (stereo not given),1.5
12,NC(CO)C(=O)O (stereo not given),0.761
13,N#CCc1c[nH]c2ccccc12,4.53
14,NC(CS)C(=O)NCC(=O)O (stereo not given),0.946
15,O=C(O)C(=O)c1ccccc1,2.26
16,O=C(CO)C(OC1OC(CO)C(O)C(O)C1O)C(O)C(O)CO (stereo not given),0.828
17,Oc1ccccc1O,2.93
18,O=C(O)CNC(=O)c1ccco1,1.7
19,O=C(O)CCCc1ccccc1,3.86
20,NCC1CCC(C(=O)O)CC1 (stereo not given),0.843
21,NC(CCO)C(=O)O (stereo not given),0.762
22,Cc1cn(C2CC(O)C(COP(=O)(O)OP(=O)(O)OC3OC(CO)C(O)C(O)C3O)O2)c(=O)[nH]c1=O (stereo not given),0.923
23,O=C(O)c1cc(O)cc(O)c1,0.832
24,NCCC(=O)NC(Cc1cnc[nH]1)C(=O)O (stereo not given),0.9
25,CCC(C(=O)O)c1ccccc1 (stereo not given),3.74
26,Cc1ccc(OC2OC(C(=O)O)C(O)C(O)C2O)cc1 (stereo not given),2.77

row,Structure (SMILES),LC retention time [min]
1,CC(=O)CCC(=O)O,0.87
2,NC(=O)c1ccc[n+](C2OC(COP(=O)(O)OP(=O)(O)OCC3OC(n4cnc5c(=O)[nH]cnc54)C(O)C3O)C(O)C2O)c1 (stereo not given),1.26
3,NC(CCSSCCC(N)C(=O)O)C(=O)O (stereo not given),0.929
4,O=C1OC(C(O)CO)C(=O)C1=O (stereo not given),0.862
5,CC(=O)S,2.35
6,CC(=O)NC(CS)C(=O)O (stereo not given),1.15
7,CC(C)C(N)C(=O)O (stereo not given),1
8,CCCC(CCC)C(=O)O,4.23
9,CC(C)=CC(=O)SCCNC(=O)CCNC(=O)C(O)C(C)(C)COP(=O)(O)OP(=O)(O)OCC1OC(n2cnc3c(N)ncnc32)C(O)C1OP(=O)(O)O (stereo not given),2.95
10,CC(C)CC(=O)C(=O)O,2.48
11,CC(=O)C1C(=O)C=C(C)OC1=O (stereo not given),2.04
12,CCCCC(CC)CCC(=O)O (stereo not given),5.33
13,O=c1[nH]c(=O)c2[nH]cnc2[nH]1,0.977
14,Nc1ncnc2c1ncn2C1OC(COP(=O)(O)O)C(O)C1O (stereo not given),0.858
15,C[N+](C)(C)CCCCC(N)C(=O)[O-] (stereo not given),0.837
16,CC([NH3+])C(=O)NCC(=O)[O-] (stereo not given),2.68
17,C[N+](C)(C)CC(O)CC(=O)[O-] (stereo not given),1.23
18,O=C(O)c1c(O)cccc1O,2.9
19,CC(CO)C(=O)O (stereo not given),0.798
20,O=C(O)c1ccc2ccccc2c1O,4.3
21,O=C(O)c1cc(O)ccc1O,1.63
22,COc1ccc(CC(=O)O)cc1OC,2.66
23,O=C(O)Cc1ccc(O)c(O)c1,1.1
24,NC(CO)Cc1cnc[nH]1 (stereo not given),1.28
25,O=C(O)CNC(=O)c1cccc(O)c1,1.91
26,Nc1nc2c(ncn2C2CC(O)C(COP(=O)(O)O)O2)c(=O)[nH]1 (stereo not given),0.923

row,Structure (SMILES),LC retention time [min]
1,OCC1OC(OCC2OC(OCC3OC(OC4(CO)OC(CO)C(O)C4O)C(O)C(O)C3O)C(O)C(O)C2O)C(O)C(O)C1O (stereo not given),0.928
2,NCCCCC(N)C(=O)O (stereo not given),0.794
3,O=C(O)C(O)c1cccc(O)c1 (stereo not given),0.848
4,CCCCC1=NC2(CCCC2)C(=O)N1Cc1ccc(-c2ccccc2-c2nn[nH]n2)cc1,5.32
5,NC(=O)C1=CN(C2OC(COP(=O)(O)OP(=O)(O)OCC3OC(n4cnc5c(N)ncnc54)C(O)C3O)C(O)C2O)C=CC1 (stereo not given),0.901
6,CC(CCC(=O)O)C1CCC2C3C(O)CC4CC(O)CCC4(C)C3CC(O)C12C (stereo not given),4.99
7,O=C(O)Cc1cccc(O)c1,1.79
8,CCCCCCCC(=O)O,4.74
9,NC(N)=Nc1nc(CSCCC(N)=NS(N)(=O)=O)cs1,3.07
10,OCc1cccc(O)c1,2.93
11,O=S(=O)(O)CCO,0.866
12,CC=CC=CC(=O)O,2.28
13,O=CC(O)C1OC(=O)C(O)C1O (stereo not given),0.884
14,CCC(O)C(=O)O (stereo not given),0.842
15,O=C(O)c1ccc(O)c(O)c1,0.797
16,NC(N)=NCCCC(N)C(=O)O (stereo not given),0.845
17,Cc1ccc(OS(=O)(=O)O)cc1,2.9
18,Cc1ccccc1C(=O)O,2.21
19,O=CC(O)C(O)C(O)CO (stereo not given),0.839
20,CC(=O)OCc1ccccc1,2.78
21,[2H]C([2H])([2H])C([2H])([2H])C([2H])([2H])C([2H])([2H])C([2H])([2H])C([2H])([2H])C([2H])([2H])C(=O)O,4.67
22,NCC(O)CCC(N)C(=O)O (stereo not given),0.78
23,CCCC(N)C(=O)O (stereo not given),1.02
24,O=C(O)C(O)c1ccccc1 (stereo not given),1.59
25,O=S(=O)(O)Oc1c[nH]c2ccccc12,2.59

# Source: the RepoRT retention time repository (doi:10.1038/s41586-021-03707-9)
